± gives the standard deviation of the averaged measurements.
What was measured:
Conditions in all cases: 72 h
Calu-3 [1] = test: relative viability EC50 (midpoint between 100% and the lowest measured viability); higher = less toxic
HepG2 [2] = test: as above
Vero E6 [3] = test: as above
Caco-2 [4] = test: as above
U2OS [5] = test: as above
Calu-3 [6] = test: cell viability relative to DMSO; higher = less toxic
HepG2 [7] = test: as above
Vero E6 [8] = test: as above
Caco-2 [9] = test: as above
U2OS [10] = test: as above
Calu-3 [11] = test: drug sensitivity score (DSS) for viability; higher = more toxic; extreme values may be limits of the assay
HepG2 [12] = test: as above
Vero E6 [13] = test: as above
Caco-2 [14] = test: as above
U2OS [15] = test: as above

SMILES	relative viability EC50 (Calu-3 [1]) [µM]	relative viability EC50 (HepG2 [2]) [µM]	relative viability EC50 (Vero E6 [3]) [µM]	relative viability EC50 (Caco-2 [4]) [µM]	relative viability EC50 (U2OS [5]) [µM]	cell viability (Calu-3 [6]; 1 nM) [%]	cell viability (Calu-3 [6]; 10 nM) [%]	cell viability (Calu-3 [6]; 100 nM) [%]	cell viability (Calu-3 [6]; 1000 nM) [%]	cell viability (Calu-3 [6]; 10000 nM) [%]	cell viability (HepG2 [7]; 1 nM) [%]	cell viability (HepG2 [7]; 10 nM) [%]	cell viability (HepG2 [7]; 100 nM) [%]	cell viability (HepG2 [7]; 1000 nM) [%]	cell viability (HepG2 [7]; 10000 nM) [%]	cell viability (Vero E6 [8]; 1 nM) [%]	cell viability (Vero E6 [8]; 10 nM) [%]	cell viability (Vero E6 [8]; 100 nM) [%]	cell viability (Vero E6 [8]; 1000 nM) [%]	cell viability (Vero E6 [8]; 10000 nM) [%]	cell viability (Caco-2 [9]; 1 nM) [%]	cell viability (Caco-2 [9]; 10 nM) [%]	cell viability (Caco-2 [9]; 100 nM) [%]	cell viability (Caco-2 [9]; 1000 nM) [%]	cell viability (Caco-2 [9]; 10000 nM) [%]	cell viability (U2OS [10]; 1 nM) [%]	cell viability (U2OS [10]; 10 nM) [%]	cell viability (U2OS [10]; 100 nM) [%]	cell viability (U2OS [10]; 1000 nM) [%]	cell viability (U2OS [10]; 10000 nM) [%]	drug sensitivity score (Calu-3 [11])	drug sensitivity score (HepG2 [12])	drug sensitivity score (Vero E6 [13])	drug sensitivity score (Caco-2 [14])	drug sensitivity score (U2OS [15])
CC(C)(C=O)Cc1cc(C(C)(C)C)c(O)c(C(C)(C)C)c1	> 10	> 10	> 10	> 10	> 10	102	98.8	91.2	100	102	97.2	96.1	108	99.9	90.9	97.1	97.8	103	98.4	101	92.7	97.6	97.6	90.4	96.7	106	103	104	98.1	102	0	0	0	0	0
CN=c1nc(-c2ccccc2)n(-c2ccccc2)s1	> 10	> 10	> 10	> 10	> 10	110	101	95.8	89.9	96	98.4	99.8	98	92.2	95.7	97.8	99.3	96.7	101	87.9	97.2	105	97	97.7	89	95.5	98.1	93.4	96.9	93.8	0	0	0	0	0
CO[C@H]1/C=C/O[C@@]2(C)Oc3c(C)c(O)c4c(O)c(c(/C=N/N=C/N5CCCCC5)c(O)c4c3C2=O)NC(=O)/C(C)=C\C=C\[C@H](C)[C@H](O)[C@@H](C)[C@@H](O)[C@@H](C)[C@H](OC(C)=O)[C@@H]1C	> 10	> 10	> 10	> 10	> 10	107	102	105	98.2	101	98.5	101	93.3	113	108	102	100	98	98.2	90.9	85.4	96.2	84.9	90.9	83.1	102	106	99	99.6	91.6	0	0	0	0	0
COc1[nH]c2ccc(F)cc2c1C(=O)OCC1CCN(CCNS(C)(=O)=O)CC1	> 10	> 10	> 10	> 10	> 10	96	94.3	92.2	105	107	98.7	105	97.2	101	94.6	103	108	102	104	97.3	103	99.3	96.7	98.2	98.3	104	94.5	100	97.2	98.9	0	0	0	0	0
COc1ccc(NS(=O)(=O)c2ccc(I)cc2)cc1N1CCN(C)CC1	> 10	> 10	> 10	> 10	> 10	95.6	94.7	102	93.3	101	108	104	100	99.9	82.6	103	107	102	100	92.2	109	98	102	98.5	93.3	101	97.7	102	99.8	98.2	0	0.4	0	0	0
COc1ccc(S(=O)(=O)Nc2c(C)cc(C)cc2C)cc1	> 10	> 10	> 10	> 10	> 10	103	96.5	94.6	106	102	105	98	105	99.5	97.3	101	105	97.2	101	93.7	106	94.2	93.6	94.9	94.1	103	98.7	101	98.5	99.6	0	0	0	0	0
COc1nccc(-c2c(-c3ccc(F)cc3)ncn2C2CCNCC2)n1	> 10	> 10	> 10	> 10	> 10	87.3	93.7	90.7	95.7	83.3	93.9	99.8	104	88.4	94.6	100	97	94.4	83.6	89	95.8	95.7	87.6	95.2	87.8	96.3	99.5	97.1	96.9	90	0	0.4	1.4	0	0
C[C@H](Cc1ccc2c(c1)OC(C(=O)O)(C(=O)O)O2)NC[C@H](O)c1cccc(Cl)c1	> 10	> 10	> 10	> 10	> 10	103	101	90.6	92.9	91.1	97.9	101	103	101	97.4	97.5	97.2	93.1	96.4	97.9	103	101	104	97.3	111	104	101	99.1	99	102	0	0	0	0	0
Cc1ccc(N2CCN(CC[C@H]3NC(=O)c4ccccc43)CC2)cc1C	> 10	> 10	> 10	> 10	> 10	104	96.1	95.6	99.7	113	90.2	96.1	96.2	95.2	97.3	90.8	97.7	93.4	98.7	111	97.3	90.7	92.4	97	96.4	96.7	101	98.9	96.2	102	0	0	0	0	0
Cc1ccc(S(=O)(=O)Cc2nc(-c3ccc(C(=O)NCc4cccnc4)cc3)oc2C)cc1	0.036	0.0249	0.0372	0.0408	0.0364	105	102	8.7	5.3	5.3	101	77.3	23.5	12.2	9.5	106	110	2.3	1.5	2.6	104	107	11.2	5.4	16.6	96.4	108	1.1	-0.1	-0.2	28.3	28.2	29.2	27.6	29.7
Cn1cc(-c2ccc(F)c(C(F)(F)F)c2)nc1C1CCN(c2ncnc3[nH]ncc23)CC1	> 10	> 10	> 10	> 10	> 10	95.6	90.2	96.4	94.1	82.1	106	97.8	106	91.7	94.7	98.4	106	96.7	95.4	92	97	96.9	102	102	84.5	96.9	94.5	90.3	90.9	84.6	0.4	0	0	0.2	0.7
O=C(Nc1cc(C(F)(F)F)cc(C(F)(F)F)c1)c1cnc(Cl)nc1C(F)(F)F	> 10	> 10	> 10	> 10	> 10	98.3	109	101	104	99.2	90.4	96.7	99.8	97	92.6	96	97.5	97.1	97.2	102	102	94.3	102	103	97.7	100	100	102	99.9	94.9	0	0	0	0	0
OCCn1cc(-c2cnc3nnn(Cc4ccc5ncccc5c4)c3n2)cn1	> 10	–	> 10	> 10	> 10	99	92.2	93	93.9	103	102	93.6	88.8	97.7	74.9	99.7	105	97.7	97.7	96.4	93.7	100	97.1	86.2	79.2	105	101	99.3	95.3	97.1	0	1.3	0	1.8	0
COC(=O)C1=C(C)NC(C)=C([N+](=O)[O-])[C@@H]1c1ccccc1C(F)(F)F (racemic) [BAY-K-8644-(+/-)]	> 10	> 10	> 10	> 10	> 10	101 ± 8.4	99.4 ± 2.1	99.9 ± 7.6	100 ± 6.7	98.5 ± 3.2	99.8 ± 1.3	93.6 ± 3.2	95.2 ± 1.8	104 ± 10	94.25 ± 0.21	95 ± 1.1	97.9 ± 1.4	99.4 ± 4.5	100 ± 2	101 ± 5.7	89.8 ± 1.6	94.5 ± 2.3	94.3 ± 1.8	106 ± 4.2	93.4 ± 3.4	95.9 ± 0.28	95.9 ± 4.4	98.8 ± 4.9	97.9 ± 4.7	96.2 ± 0.85	0	0	0	0	0
